Measured values as given in US6255327A, “Diphenyl-substituted heterocycles, processes for preparing them and their use as pharmaceutical compositions” (Boehringer Ingelheim Pharma KG, priority 1998, dated 2001).

Assays:
[1] = system: AMPA receptor; assay: Inhibition of the cainate-induced signal at the AMPA receptor, electrophysiology on neuronal cells (patch-clamp method); format: cell-based; settings: test concentration of 100 μM
Method: The testing was carried out at a test concentration of 100 μM.

[2] = molecular target: "Na^+ channel site 2" binding site; assay: Affinity to the "Na^+ channel site 2" binding site; settings: typically at a test concentration of 10 μM
Method: The testing was typically carried out at a test concentration of 10 μM.

[3] = system: neurones in mouse brains; settings: after systemic administration; cited from earlier work

SMILES	AMPA Inh. [%] (inhibition of the cainate-induced signal at the AMPA receptor) [1]	Ki [2] [nM]	destruction of neurones in mouse brains (in words) [3]
c1ccc(-c2ncn(-c3ccccc3)n2)cc1 [Example 1, 1,3-Diphenyl-1,2,4-triazole]	56		
COc1ccccc1-n1cnc(-c2ccccc2)n1 [Example 2, 1-(2-methoxyphenyl)-3-phenyl-1,2,4-triazole]	96		
CN(C)CCOc1ccccc1-n1cnc(-c2ccccc2)n1 [Example 3, 1-{2-[2(N,N-Dimethylamino)ethyl]oxy-phenyl}-3-phenyl-1,2,4-triazole]	74	3700	
CN(C)CCOc1ccccc1-c1ncn(-c2ccccc2)n1 [Example 5, 3-{2-[2(N,N-Dimethylamino)ethyl]oxy-phenyl}-1-phenyl-1,2,4-triazole]	76	700	
CN(C)CCOc1ccccc1-c1n[nH]c(-c2ccccc2)n1 [Example 7, 3-{2-[2(N,N-Dimethylamino)ethyl]oxy-phenyl}-5-phenyl-1,2,4-triazole]	39	1200	
CN(C)CCOc1ccccc1-c1coc(-c2ccccc2)n1 [Example 8, 4-{2-[2(N,N-dimethylamino)ethyl]oxy-phenyl}-2-phenyl-1,3-oxazole]	77	4600	
CN(C)CCOc1ccccc1-c1c[nH]c(-c2ccccc2)n1 [Example 9, 4-{2-[2(N,N-dimethylamino)ethyl]oxy-phenyl}-2-phenyl-imidazole]		1800	
CN(C)CCOc1ccccc1-c1cnc(-c2ccccc2)o1 [Example 10, 5-{2-[2(N,N-dimethylamino)ethyl]oxy-phenyl}-2-phenyl-1,3-oxazole]	98	990	
CN(C)CCOc1ccccc1-c1nn(-c2ccccc2)c(=O)o1 [Example 12, 5-{2-[2(N,N-dimethylamino)ethyl]oxy-phenyl}-3-phenyl-1,3,4-oxadiazol-2-one]		990	
COc1ccccc1-c1c[nH]c(-c2ccccc2)c1 [Example 13, 3-(2-methoxyphenyl)-5-phenyl-1H-pyrrole]		1100	
COc1ccccc1-c1cnn(-c2ccccc2)c1 [Example 17, 4-(2-methoxyphenyl)-1-phenyl-pyrazole]	53	390	
CN(C)CCOc1ccccc1N1C(=O)NC(c2ccccc2)C1=O (stereo not shown) [Example 19, 3-{2-[2(N,N-dimethylamino)ethyl]oxy-phenyl}-5-phenyl-imidazolidin-2,4-dione]		550	
CN(C)CCOc1ccccc1-n1cc(-c2ccccc2)[nH]c1=O [Example 20, 1-{2-[2(N,N-dimethylamino)ethyl]oxy-phenyl}-4-phenyl-1,3-dihydro-imidazole-2-one]		360	
CN(C)CCOc1ccccc1C1NC(=O)N(c2ccccc2)C1=O (stereo not shown) [Example 21, 5-{2-[2(N,N-dimethylamino)ethyl]oxy-phenyl}-3-phenyl-imidazolidin-2,4-dione]		710	
CN(C)CCOc1ccccc1-c1cn(-c2ccccc2)c(=O)[nH]1 [Example 22, 4-{2-[2(N,N-dimethylamino)ethyl]oxy-phenyl}-1-phenyl-1,3-dihydro-imidazol-2-one]		1300	
CN(C)CCOc1ccccc1-c1nc(-c2ccccc2)nn1C [Example 23, 5-{2-[2(N,N-dimethylamino)-ethyl]oxy-phenyl}-1-methyl-3-phenyl-1,2,4-triazole]		1400	
CN(C)CCOc1ccccc1-c1ccc(-c2ccccc2)[nH]1 [Example 24, 2-{2-[2(N,N-dimethylamino)-ethyl]oxy-phenyl}-5-phenyl-pyrrole]		460	
CN(C)CCOc1ccccc1-c1nc(-c2ccccc2)c[nH]1 [Example 25, 2-{2-[2(N,N-dimethylamino)-ethyl]-oxy-phenyl}-4-phenyl-imidazole]		1300	
N[C@@H](CCC(=O)O)C(=O)O [glutamate]			neurones are destroyed in mouse brains
